According to US20030045699A1, “Membrane receptors for steroids and sterols” (priority 2001, published 2003):

Test system: polypeptide according to the invention (membrane receptor for steroids and sterols)
Experiment: Receptor binding studies (binding assay) with radiolabeled steroids and sterols
Design: species or system human
Conditions: qualitative statement in the description; no value given
Method: In addition, the invention relates to a test system for identifying effectors of a polypeptide according to the invention, whereby a polypeptide according to the invention is incubated as a complete or partial sequence thereof with a steroid, a steroid analog or a sterol, and the amount of bound steroid, steroid analog or sterol is detected. As a partial sequence, e.g., the area that comprises the “leucine-rich repeats” and the island domain or shorter strands thereof can be used. The binding of the effectors can be measured, e.g., by labeled substances being used and the labeling (e.g., radioactivity or fluorescence) being measured. A displacement reaction can also be measured, however, by a binding labeled steroid being used and the displacement of the labeling by the receptor being measured after the addition of the substances to be tested. […]
Crude extracts and cytosol fractions (0.04 ml) were incubated at 4° C. for 2 hours with 10 μl of radioactive steroid or sterol (concentration in the batch 10 nmol/l) either in the absence or in the presence of a 100× excess of a non-radioactive substance (for determining the unspecific bond). […] After centrifuging (5 minutes, 15,000 g), an aliquot of the supernatant was removed, and the radioactivity was determined by means of a scintillation counter. […]

binding of the substance by the polypeptide according to the invention: binds
Structure (SMILES): CC(C)=CCC[C@@H](C)[C@H]1CC=C2C3=C(CC[C@@]21C)[C@@]1(C)CC[C@H](O)C(C)(C)[C@@H]1CC3 [FF-MAS]
